Results as given in article PMC8020795 (Proceedings of the National Academy of Sciences of the …, 2021).

Legend:
hERG = target: T1, hERG (Homo sapiens, UniProt Q12809); assay: hERG patch-clamp assay (hERG-CHO, automated patch-clamp); type: cell-based; conditions: human, CHO cells that express hERG
T1 construct: host or cells: CHO (hERG-CHO)
Text: (§1) page 16: Table: List of genes examined by real-time PCR and the primer sequences used. Genes Forward primers Reverse primers Slug [NT] Fn1 [NT] Cdh2 […] Foxc2 [NT] Zeb1 [NT] Zeb2 [NT] Twist1 [NT] Cdh1 [NT] Mta3 [NT] Cldn3 [NT] Cldn5 [NT] β-actin […] [NT] Off-target standard assays Methods employed in this study have been adapted from the scientific literature to maximize reliability and reproducibility. Reference standards were run as an integral part of each assay to ensure the validity of the results obtained. Radioligand binding Assays were performed under conditions described in the accompanying "Methods" section of this report by Eurofins Panlabs, Inc (Taipei, Taiwan, ROC). hERG patch-clamp assay BPRCX807 were tested in the hERG (hERG-CHO, automated patch-clamp) assay and determined at Eurofins Panlabs (Missouri, USA). The experiment was accepted in accordance with Eurofins validation Standard Operating Procedure. Selectivity Screening of various chemokine receptors The results were performed by Eurofins DiscoverX (Fremont, California, USA). The S15

hERG (human K+ channel) = target: T2, hERG (human K+ channel) (Homo sapiens, UniProt Q12809); assay: as above; type: cell-based
T2 construct: host or cells: CHO (hERG-CHO)
T2 sequence (Q12809 whole entry): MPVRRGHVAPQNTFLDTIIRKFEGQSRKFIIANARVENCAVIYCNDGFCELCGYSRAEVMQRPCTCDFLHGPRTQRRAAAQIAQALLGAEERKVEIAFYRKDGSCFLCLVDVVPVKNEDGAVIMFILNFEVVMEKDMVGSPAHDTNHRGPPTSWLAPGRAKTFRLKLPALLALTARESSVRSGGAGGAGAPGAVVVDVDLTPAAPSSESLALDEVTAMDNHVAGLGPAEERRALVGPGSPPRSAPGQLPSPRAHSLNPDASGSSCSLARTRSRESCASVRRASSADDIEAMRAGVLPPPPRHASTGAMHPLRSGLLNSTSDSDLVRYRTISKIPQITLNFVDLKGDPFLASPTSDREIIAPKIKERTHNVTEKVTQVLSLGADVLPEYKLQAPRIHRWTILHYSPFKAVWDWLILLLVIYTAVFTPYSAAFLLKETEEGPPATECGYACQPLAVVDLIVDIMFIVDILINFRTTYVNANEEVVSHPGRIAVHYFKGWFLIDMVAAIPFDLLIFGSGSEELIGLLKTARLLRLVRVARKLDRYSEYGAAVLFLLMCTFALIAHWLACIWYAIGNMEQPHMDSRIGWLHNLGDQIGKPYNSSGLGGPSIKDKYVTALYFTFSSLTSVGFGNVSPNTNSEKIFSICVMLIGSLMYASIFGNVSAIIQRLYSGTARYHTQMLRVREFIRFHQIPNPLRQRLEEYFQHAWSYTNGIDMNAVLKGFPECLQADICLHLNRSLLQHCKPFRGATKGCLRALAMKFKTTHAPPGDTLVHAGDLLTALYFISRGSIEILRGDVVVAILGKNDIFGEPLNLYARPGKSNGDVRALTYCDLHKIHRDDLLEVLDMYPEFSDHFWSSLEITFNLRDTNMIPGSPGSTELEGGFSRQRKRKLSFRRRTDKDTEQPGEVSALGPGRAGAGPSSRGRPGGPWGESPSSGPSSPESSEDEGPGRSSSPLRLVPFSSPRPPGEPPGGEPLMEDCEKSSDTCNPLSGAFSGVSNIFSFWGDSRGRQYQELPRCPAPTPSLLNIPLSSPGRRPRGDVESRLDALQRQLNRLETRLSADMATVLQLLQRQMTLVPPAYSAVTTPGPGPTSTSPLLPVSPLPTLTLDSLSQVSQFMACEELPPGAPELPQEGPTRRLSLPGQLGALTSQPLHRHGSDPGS
Text: as §1

HCA-1 cells = assay: Wound healing assay; type: cell-based, murine; conditions: CXCL12 100 ng/mL, BPRCX807 10 μM, 24, 48, 72 h
Description: [3-(2-Aminomethyl-oxazol-4-yl)-propyl]-[3-(tert-butoxycarbonyl-cyclohexyl-amino)- propyl]-carbamic acid tert-butyl ester (Linker 1). A mixture of L1-6 (10.35 g, 16.5 mmol) and 10% Pd/C (4.66 g) in iso-propanol (310 mL) was stirred under H2(g) at 50 °C for 15 h.
The resulting mixture was filtered, and the filtrate was concentrated to afford Linker 1 (7.23 g, […]
Wound healing and invasion assays
Cell migration ability was measured by wound healing assay. HCA-1 cells (5 × 10^5 cells per well) were seeded onto 12-well plates and incubated overnight. When the cell confluence exceeded 90%, scratch wounds were made by scraping a straight line in the middle of the cell layer using the tip of a 1000 µL pipette. After washing the cells with PBS, the cells were incubated in serum-free medium under different treatment conditions (control, 100 ng/mL CXCL12, and 10 µM BPRCX807 with 100 ng/mL CXCL12). Then, 3-4 fields (40×) of each group were randomly chosen and observed by a microscope (IX83, Olympus, Japan) at time points of 0 h, 24h, 48 h and 72 h. For the invasion assay, HCA-1 cells were suspended in RPMI 1640 containing 0.5% FBS and then preincubated with the indicated concentrations of compounds for 10 min at 37 °C. […] After 17.5 h of incubation at 37 °C, the cells in both chambers of the inserts were measured with a CellTiter-Glo Luminescent Cell Viability Assay (Promega, Wisconsin). […]

CXCR4 = CXCR4 (Homo sapiens, UniProt P61073); assay: Human CXCR4-binding assay ([125I]CXCL12 displacement, hCXCR4-transfected HEK293T membranes); set-up: expressed in transfected cells; host or cells: HEK293T
CXCR4, sequence (P61073 whole entry): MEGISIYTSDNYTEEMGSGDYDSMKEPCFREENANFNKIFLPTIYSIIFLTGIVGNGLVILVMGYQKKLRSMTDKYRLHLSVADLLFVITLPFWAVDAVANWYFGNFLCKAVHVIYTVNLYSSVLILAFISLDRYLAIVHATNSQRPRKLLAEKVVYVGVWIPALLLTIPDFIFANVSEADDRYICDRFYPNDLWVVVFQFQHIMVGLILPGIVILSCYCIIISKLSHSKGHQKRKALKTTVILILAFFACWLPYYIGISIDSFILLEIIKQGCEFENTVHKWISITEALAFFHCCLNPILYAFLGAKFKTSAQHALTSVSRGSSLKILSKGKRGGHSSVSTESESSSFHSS
Description: concentrations of BPRCX807 in incubation buffer (50 mM HEPES-NaOH, pH 7.4, 100 mM NaCl, 5 mM MgCl2, 1 mM CaCl2, 0.5% BSA). Nonspecific binding was defined in the […]
The reaction mixtures were incubated for 1.5 h at 30 °C and then transferred to a 96 -well GF/B filter plate (Merck Millipore, Billerica, MA).
The reaction mixtures were terminated by manifold filtration and washed with ice-cold wash buffer (50 mM HEPES-NaOH, pH 7.4, 100 mM NaCl) four times. The radioactivity bound to the filter was measured with a TopCount instrument (PerkinElmer, Waltham, MA). The IC50 values were determined as the concentrations of the compounds required to inhibit 50% of the specific binding of [125I]CXCL12 and were calculated by nonlinear regression (GraphPad software, San Diego, CA).
Pharmacokinetics and toxicological studies
Male C57BL/6 mice, each weighing 23.4–25.4 g, were quarantined for 1 week before drug treatment. Compounds dissolved in 100% saline were individually given to mice (n = 3) subcutaneously (6 mg/kg; nonfasted mice). […] The plasma samples were analyzed by liquid chromatography– tandem mass spectrometry (LC–MS/MS), and the data were calculated by a standard noncompartmental method using the Kinetica software program (InnaPhase). […]

T1 sequence (Q12809 whole entry): as the sequence (Q12809 whole entry) above

Cc1cc(NC2CCN(C(=O)CCNCC(=O)O)CC2)nc(NCc2nc(CCCNCCCNC3CCCCC3)co2)n1 [BPRCX807]
inhibition at 1 µM (hERG; 1 µM): 13.8%
inhibition at 10 µM (hERG; 10 µM): 9%
inhibition at 100 µM (hERG; 100 µM): 17.4%
IC50 (hERG (human K+ channel)): > 100000 nM
CXCL12-induced wound closure rate (HCA-1 cells): significantly suppressed
IC50 (CXCR4): 40.4 ± 8 nM
